Measurements taken from patent US20130018039A1, “IMIDAZOLYL-IMIDAZOLES AS KINASE INHIBITORS” (priority 2010, published 2013).

Target: T1, RIPK2 (full length FLAG His tagged RIPK2; RIP2 kinase) (Homo sapiens, UniProt O43353)
T1 construct: Full length FLAG His tagged RIPK2 was purified from a Baculovirus expression system; FLAG (N); 6His (N); made in house; host or cells: Spodoptera frugiperda (Sf9) insect cells, baculovirus
Assay: Fluorescent polarization based binding assay, competition with a fluorescently labeled ATP competitive ligand at the ATP binding pocket of RIPK2
Conditions: pIC50s averaged, minimum of 2 experiments; fluorescent ligand 5 nM; read-out: mean pIC50 (converted)
From the text: A fluorescent polarization based binding assay was developed to quantitate interaction of novel test compounds at the ATP binding pocket of RIPK2, by competition with a fluorescently labeled ATP competitive ligand. Full length FLAG His tagged RIPK2 was purified from a Baculovirus expression system and was used at a final assay concentration of twice the KDapparent. A fluorescent labeled ligand (5-({[2-({[3-({4-[(5-hydroxy-2-methylphenyl)amino]-2-pyrimidinyl}amino)phenyl]carbonyl}amino)ethyl]amino}carbonyl)-2-(6-hydroxy-3-oxo-3H-xanthen-9-yl)benzoic acid, prepared as described below) was used at a final assay concentration of 5 nM. Both the enzyme and ligand were prepared in solutions in 50 mM HEPES pH7.5, 150 mM NaCl, 10 mM MgCl2, 1 mM DTT, and 1 mM CHAPS. Test compounds were prepared in 100% DMSO and […] was dispensed to individual wells of a multiwell plate. Next, 5 ul RIPK2 was added to the test compounds at twice the final assay concentration, and incubated at room temperature for 10 minutes. […] Finally, samples were read on an instrument capable of measuring fluorescent polarization. Test compound inhibition was expressed as percent (%) inhibition of internal assay controls.
For concentration response experiments, normalized data were fit and pIC50s determined using conventional techniques. […]

T1 sequence (O43353 whole entry): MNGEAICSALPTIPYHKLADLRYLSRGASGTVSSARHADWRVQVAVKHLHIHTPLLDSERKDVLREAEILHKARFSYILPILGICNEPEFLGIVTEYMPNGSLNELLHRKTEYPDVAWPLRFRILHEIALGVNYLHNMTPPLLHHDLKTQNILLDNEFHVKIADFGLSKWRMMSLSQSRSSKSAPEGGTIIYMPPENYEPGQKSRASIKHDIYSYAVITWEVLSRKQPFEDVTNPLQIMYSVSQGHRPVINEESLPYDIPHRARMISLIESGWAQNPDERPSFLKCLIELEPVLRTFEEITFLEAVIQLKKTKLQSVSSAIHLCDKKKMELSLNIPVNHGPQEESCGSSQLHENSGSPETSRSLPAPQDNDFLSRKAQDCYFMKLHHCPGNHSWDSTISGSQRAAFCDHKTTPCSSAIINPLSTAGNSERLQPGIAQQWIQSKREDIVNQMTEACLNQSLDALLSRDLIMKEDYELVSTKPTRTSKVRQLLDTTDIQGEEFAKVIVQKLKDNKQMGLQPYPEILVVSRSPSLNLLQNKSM

IC50 [µM]	Structure (SMILES)
10	CNC(=O)c1ccc2c(c1)nc(-c1c[nH]c(-c3ccc(Cl)cc3)n1)n2Cc1ccccn1 [Example 2, 2-[2-(4-chlorophenyl)-1H-imidazol-4-yl]-N-methyl-1-(2-pyridinylmethyl)-1H-benzimidazole-5-carboxamide]
10	COCCNC(=O)c1ccc2c(c1)nc(-c1cnc(-c3ccccc3)[nH]1)n2CCOC [Example 39, N,1-bis[2-(methyloxy)ethyl]-2-(2-phenyl-1H-imidazol-4-yl)-1H-benzimidazole-5-carboxamide]
